From article PMC3362575, “Synthesis and Biological Evaluation of Phenanthrenes as Cytotoxic Agents with Pharmacophore Modeling and ChemGPS-NP Prediction as Topo II Inhibitors” (PLoS ONE, 2012)
≈ marks a conversion by molar mass, not a printed value. Like-named read-outs stand apart in the source and are kept apart here.

Assays:
[1] = system: HepG2; experiment: MTT cytotoxicity assay, HepG2; format: cell-based, human; settings: Homo sapiens, HepG2, Table 2, synthesized phenanthrenes
Method: (§1) The cytotoxic assay of 11 naturally occurring and 19 synthesized phenanthrenes was carried out on a diverse set of human liver (HepG2 and Hep3B), oral (Ca9-22), lung (A549) and breast (MEA-MB-231 and MCF7) cancer cell lines, and a human fetal lung fibroblast (MRC-5) cell line (Tables 1 and 2).
(§2) Compounds were tested against human liver (HepG2 and Hep3B), oral (Ca9-22), lung (A549), breast (MEA-MB-231 and MCF7) cancer cell lines, and the human fetal lung fibroblast (MRC-5) cell line using an established colorimetric MTT assay protocol. The absorbance was measured at 550 nm using a microplate reader. The IC50 is the concentration of agent that reduced cell growth by 50% under the experimental conditions.

[2] = system: Hep3B; experiment: MTT cytotoxicity assay, Hep3B; format: cell-based, human; settings: Homo sapiens, Hep3B, Table 2, synthesized phenanthrenes
Method: as §1, §2

[3] = system: Ca9-22; experiment: MTT cytotoxicity assay, Ca9-22; format: cell-based, human; settings: Homo sapiens, Ca9-22, Table 2, synthesized phenanthrenes
Method: as §1, §2

[4] = system: A549; experiment: MTT cytotoxicity assay, A549; format: cell-based, human; settings: Homo sapiens, A549, Table 2, synthesized phenanthrenes
Method: as §1, §2

[5] = system: MCF-7; experiment: MTT cytotoxicity assay, MCF-7; format: cell-based, human; settings: Homo sapiens; for IC50: MCF7, Table 2, synthesized phenanthrenes, MTT; for MCF-7 activity class (from IC50): MCF7, Table S3, read-out: Scale Exptl. (MCF-7 activity class)
Method: as §1, §2
The pharmacophore modeling with Catalyst HypoGen was performed via Discovery Studio 2.1 (Accelrys, San Diego, CA, USA). Twenty-nine phenanthrene derivatives were collected from the natural plant, C. arisanensis, and from chemical synthesis (Figure 2). Cytotoxicity against MCF-7 cells was determined by the MTT assay and the concentration (µg/mL) of test compound which inhibited 50% of the cancer cells (IC50) was used in the generation of the pharmacophore model. An IC50 value of >20 µg/mL was defined as 20 µg/mL. All experimental IC50 values spanned about 2–3 orders of magnitude from 0.09 to 20 µg/mL. The 2D/3D structures of compounds were generated using ChemBioOffice 2008 (Cambridge Scientic Computing, Cambridge, Massachusetts, USA) and then optimized in a Dreiding force field. The conformational ensemble of each compound was generated using the best conformational analysis method based on a CHARMM force field with a 20 kcal/mol energy threshold above the global minimum. A maximum limit of 255 conformations was used to cover maximum conformational space. The best 3D arrangements of chemical functionalities should explain the activity variations among the 29 compounds. Thirty runs with different parameters were performed for the best pharmacophore hypothesis. Four chemical features, including hydrogen-bond acceptor (HBA), hydrogen-bond donor (HBD), hydrophobic (HYD), and aromatic ring (AR) features, were also tested during the building of pharmacophore hypotheses (Table S1; Text S1). The best hypotheses were selected via a correlation and a cost analysis in Catalyst HypoGen.

[6] = system: MDA-MB-231; experiment: MTT cytotoxicity assay, MDA-MB-231; format: cell-based, human; settings: Homo sapiens, MDA-MB-231, Table 2, synthesized phenanthrenes
Method: as §1, §2

[7] = system: MRC-5; experiment: MTT cytotoxicity assay, MRC-5 fetal lung fibroblast; format: cell-based, human; settings: Homo sapiens, MRC5, Table 2, synthesized phenanthrenes, normal fetal lung fibroblast
Method: as §1, §2

[8] = system: human cancer cell lines; experiment: MTT cytotoxicity assay, ranges over the cancer cell line panel; format: cell-based; settings: for IC50: Homo sapiens
Method: as §1, §2

[9] = target: T1, topoisomerase IIα (Homo sapiens, UniProt P11388); experiment: Topoisomerase II DNA cleavage assay (Topo II Drug Screening Kit); format: biochemical
T1 construct: purchased TopoGEN, Inc
T1 sequence (P11388 whole entry): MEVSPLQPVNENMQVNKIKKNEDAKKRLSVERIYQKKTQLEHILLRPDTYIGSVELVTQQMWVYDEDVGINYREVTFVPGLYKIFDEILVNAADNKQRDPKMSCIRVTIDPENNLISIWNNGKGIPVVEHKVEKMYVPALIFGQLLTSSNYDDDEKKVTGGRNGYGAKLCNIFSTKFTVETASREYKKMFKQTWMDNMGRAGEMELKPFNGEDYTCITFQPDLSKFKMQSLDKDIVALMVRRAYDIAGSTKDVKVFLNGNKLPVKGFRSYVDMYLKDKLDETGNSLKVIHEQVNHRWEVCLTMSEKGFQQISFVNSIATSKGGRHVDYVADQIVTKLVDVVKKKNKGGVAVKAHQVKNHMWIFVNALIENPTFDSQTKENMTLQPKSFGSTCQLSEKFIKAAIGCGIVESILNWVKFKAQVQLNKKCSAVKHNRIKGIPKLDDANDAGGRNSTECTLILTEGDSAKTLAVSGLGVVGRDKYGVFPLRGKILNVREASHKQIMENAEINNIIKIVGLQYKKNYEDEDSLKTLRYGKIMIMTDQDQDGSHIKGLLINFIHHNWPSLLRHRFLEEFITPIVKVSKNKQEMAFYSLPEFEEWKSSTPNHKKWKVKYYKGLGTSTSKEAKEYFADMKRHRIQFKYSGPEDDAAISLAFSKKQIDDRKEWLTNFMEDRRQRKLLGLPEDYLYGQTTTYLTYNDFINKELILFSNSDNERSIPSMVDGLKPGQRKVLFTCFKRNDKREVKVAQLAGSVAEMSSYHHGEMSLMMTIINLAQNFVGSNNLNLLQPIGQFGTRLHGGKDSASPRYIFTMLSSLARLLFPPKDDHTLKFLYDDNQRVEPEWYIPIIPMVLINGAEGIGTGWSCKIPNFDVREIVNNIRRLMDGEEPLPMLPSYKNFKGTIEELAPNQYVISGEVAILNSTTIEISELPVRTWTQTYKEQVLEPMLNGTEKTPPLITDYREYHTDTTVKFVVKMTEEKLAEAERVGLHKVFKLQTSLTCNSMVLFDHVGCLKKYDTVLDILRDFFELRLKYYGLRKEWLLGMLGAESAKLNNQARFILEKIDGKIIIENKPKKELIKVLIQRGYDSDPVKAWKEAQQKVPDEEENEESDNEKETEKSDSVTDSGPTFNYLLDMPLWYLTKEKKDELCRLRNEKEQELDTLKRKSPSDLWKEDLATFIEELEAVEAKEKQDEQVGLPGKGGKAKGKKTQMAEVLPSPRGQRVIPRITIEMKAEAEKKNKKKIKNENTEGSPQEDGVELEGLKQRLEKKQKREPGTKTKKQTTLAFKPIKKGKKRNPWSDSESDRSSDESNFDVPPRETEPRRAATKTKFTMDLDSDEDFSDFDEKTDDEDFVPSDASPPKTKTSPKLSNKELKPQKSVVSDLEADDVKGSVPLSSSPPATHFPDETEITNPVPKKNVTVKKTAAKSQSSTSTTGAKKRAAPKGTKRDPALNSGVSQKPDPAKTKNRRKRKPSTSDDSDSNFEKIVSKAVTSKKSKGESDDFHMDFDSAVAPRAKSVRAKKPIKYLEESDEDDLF
Method: From the ChemGPS-NP analysis, it seems that the MOA for 3-methoxy-1,4-PQs might processes cytotoxicity as a topoisomerase II inhibitor.
Figure 10 Topoisomerase II DNA cleavage assay. An in vitro assay was used to assess the effect of compounds 6a and 5a on the DNA cleavage activity of human TopoII. Etoposide was the positive control. Control lane: TopoIIα + plasmid DNA. DMSO lane: TopoIIα + plasmid DNA + DMSO.
Topoisomerase II assay was performed by using a Topo II Drug Screening Kit (TopoGEN, Inc.). In brief, 0.1 µg of pHOT plasmid DNA was incubated with 2 units of topoisomerase IIα in 20 µL assay buffer at 37°C for 40 min in the presence of tested compounds (6a, 5a) and control drug, etoposide, respectively. 2 µL of 10% SDS and 2.5 µL of 10 mg/mL proteinase K were added into the reaction sample and then incubated for 30 min at 37°C to digest topoisomerase IIα. The samples were mixed with 2 µL of loading buffer and cleaned up by adding an equal volume of phenol:chloroform:isoamyl alcohol (25∶24∶1) according to the description. The sample was mixed by vortex and centrifuge for 10 sec. An aliquot (10 µL) of the upper aqueous part was analyzed by electrophoresis with 2% agarose gel containing 0.5 µg/mL of ethidium bromide.

[10] = HepG2, range over five cancer cell lines, not including HepG2, read-out: IC50 against five cancer cell lines
[11] = range over the cancer cell lines tested, read-out: IC50 against various / all human cancer cell lines

`COc1cc(OC)c2c3c(ccc2c1)C(=O)C=CC3=O` [Compound 4b, 5,7-Dimethoxy-1,4-phenanthrenequinone] showed an IC50 [1] of 18.64 ± 0.14 µg/mL (≈ 69.5 µM), an IC50 [2] of 12.1 ± 0.33 µg/mL (≈ 45.1 µM) and an IC50 [3] of 3.45 ± 0.03 µg/mL (≈ 12.9 µM). It also gave an IC50 [4] greater than 20 µg/mL, an IC50 [5] of 15.63 ± 0.01 µg/mL (≈ 58.3 µM) and an MCF-7 activity class (from IC50) [5] of 1 to 20 µg/mL. It also gave an IC50 [6] of 7.09 ± 0.01 µg/mL (≈ 26.4 µM), an IC50 [7] greater than 20 µg/mL and a melting point of 121 °C.
Work on `COC1=CC(=O)c2ccc3cc(OC)c(OC)c(OC)c3c2C1=O` [Compound 5a, 3,5,6,7-Tetramethoxy-1,4-phenanthrenequinone] yielded an IC50 [1] of 4.65 ± 0.07 µg/mL (≈ 14.2 µM), an IC50 [2] of 4.67 ± 0.81 µg/mL (≈ 14.2 µM) and an IC50 [3] of 5.99 ± 0.24 µg/mL (≈ 18.2 µM). It also gave an IC50 [4] of 11 ± 0.44 µg/mL (≈ 33.6 µM), an IC50 [5] of 14.3 ± 0.5 µg/mL (≈ 43.5 µM) and an MCF-7 activity class (from IC50) [5] of 1 to 20 µg/mL. For the same compound, the IC50 [6] was greater than 20 µg/mL, the IC50 [7] was greater than 20 µg/mL and the “activity against all human cancer cell lines” value ([8]; all human cancer cell lines) was “marginal activities”. For the same compound, the “inhibition on Topo IIα (supercoiled DNA instead of relaxed)” value ([9]; 200 µmol/L) was “had the similar effect” and the “formation of linear DNA (Topo IIα DNA cleavage complex)” value ([9]; pHOT plasmid DNA, topoisomerase IIα) was “induced the formation of linear DNA”.
With `COc1cc(OC)c2c3c(ccc2c1)C(=O)CC(OC)(OC)C3=O` [Compound 5c, 3,3,5,7-tetramethoxy-2,3-dihydro-1,4-phenanthrenequinone] the IC50 [1] was greater than 20 µg/mL, the IC50 [2] was 13.8 ± 0.38 µg/mL (≈ 41.7 µM) and the IC50 [3] was 9.07 ± 0.09 µg/mL (≈ 27.5 µM). For the same compound, the IC50 [4] was 12 ± 2.18 µg/mL (≈ 36.3 µM), the IC50 [5] was 11.1 ± 0.02 µg/mL (≈ 33.6 µM) and the MCF-7 activity class (from IC50) [5] was 1 to 20 µg/mL. For the same compound, the IC50 [6] was 19.1 ± 0.43 µg/mL (≈ 57.9 µM), the IC50 [7] was greater than 20 µg/mL and the melting point was 179 °C.
Compound `COC1=CC(=O)c2ccc3c(-c4c(OC)c(OC)c(OC)c5c6c(ccc45)C(OC)=CC(=O)C6=O)c(OC)c(OC)c(OC)c3c2C1=O` [Compound 5f, 3,5,6,7,1′,5′,6′,7′-octamethoxy-[8,8′]bi-1,4,5′,6′-phenanthrenequinone] has an IC50 [1] of 19.6 ± 0.74 µg/mL (≈ 30 µM), an IC50 [2] of 7.88 ± 0.19 µg/mL (≈ 12 µM) and an IC50 [3] of 4.57 ± 0.03 µg/mL (≈ 6.98 µM). The IC50 [4] was greater than 20 µg/mL, the IC50 [5] was 14.8 ± 0.21 µg/mL (≈ 22.6 µM) and the MCF-7 activity class (from IC50) [5] was 1 to 20 µg/mL. For the same compound, the IC50 [6] was 4.74 ± 0.02 µg/mL (≈ 7.24 µM), the IC50 [7] was greater than 20 µg/mL and the melting point was 268 °C.
`COC1=CC(=O)c2ccc3cc(OC)c(OC)c(OC(C)=O)c3c2C1=O` [Compound 7a, 5-Acetoxy-3,6,7-trimethoxy-1,4-phenanthrenequinone] showed an IC50 [1] of 11.3 ± 0.14 µg/mL (≈ 31.7 µM), an IC50 [2] of 0.36 ± 0.14 µg/mL (≈ 1.01 µM) and an IC50 [3] of 0.84 ± 0.05 µg/mL (≈ 2.36 µM). It also gave an IC50 [4] of 0.6 ± 0.01 µg/mL (≈ 1.68 µM), an IC50 [5] of 0.16 µg/mL (≈ 0.449 µM) and an MCF-7 activity class (from IC50) [5] of less than 1 µg/mL. The IC50 [6] was 1.13 ± 0.05 µg/mL (≈ 3.17 µM), the IC50 [7] was 1.14 ± 0.01 µg/mL (≈ 3.2 µM) and the IC50 [8, 10] was 0.16 to 1.66 µg/mL (≈ 0.449 to 4.66 µM). The IC50 [8, 11] was 0.08 to 1.66 µg/mL (≈ 0.225 to 4.66 µM).
`COC1=CC(=O)c2ccc3cc(OC)cc(OC(C)=O)c3c2C1=O` [Compound 7b, 5-acetoxy-3,7-dimethoxy-1,4-phenanthrenequinone] showed an IC50 [1] of 13.2 ± 0.25 µg/mL (≈ 40.5 µM), an IC50 [2] of 0.6 ± 0.11 µg/mL (≈ 1.84 µM) and an IC50 [3] of 1.55 ± 0.2 µg/mL (≈ 4.75 µM). It also gave an IC50 [4] of 1.66 ± 0.01 µg/mL (≈ 5.09 µM), an IC50 [5] of 0.53 ± 0.03 µg/mL (≈ 1.62 µM) and an MCF-7 activity class (from IC50) [5] of less than 1 µg/mL. The IC50 [6] was 1.61 ± 0.04 µg/mL (≈ 4.93 µM), the IC50 [7] was 2.64 ± 0.06 µg/mL (≈ 8.09 µM) and the IC50 [8, 10] was 0.16 to 1.66 µg/mL (≈ 0.49 to 5.09 µM). For the same compound, the IC50 [8, 11] was 0.08 to 1.66 µg/mL (≈ 0.245 to 5.09 µM).
Compound `COc1cc(O)c2c(ccc3c(OC)ccc(OC)c32)c1` [Compound 9b, 5-hydroxy-1,4,7-trimethoxy-phenanthrene] has an IC50 [1] greater than 20 µg/mL, an IC50 [2] greater than 20 µg/mL and an IC50 [3] greater than 20 µg/mL. For the same compound, the IC50 [4] was greater than 20 µg/mL, the IC50 [5] was greater than 20 µg/mL and the MCF-7 activity class (from IC50) [5] was greater than 20 µg/mL. It also gave an IC50 [6] greater than 20 µg/mL, an IC50 [7] greater than 20 µg/mL and a melting point of 71 °C.
